IC50 and Ki data for twelve molecules are collected here from BindingDB's records for doi:10.1016/j.bioorg.2015.04.006 (Ataturk University, 2015).

For the test, the target named is Acetylcholinesterase (Homo sapiens, UniProt P22303). Nature of the test: Acetylcholinesterase Inhibition Assay. The note with it: pH 8. How it is done:
AChI and 5,5'-dithio-bis(2-nitro-benzoic)acid (DTNB) were used as substrate for this enzymatic reaction. […] Then 50 µL of DTNB (0.5 mM) was transferred. Then the reaction was initiated by the addition of 50 µL of AChI. The hydrolysis of AChI was recorded spectrophotometrically by the formation of yellow 5-thio-2-nitrobenzoate anion as the result of the reaction of DTNB with thiocholine at a wavelength of 412 nm.

As usually defined, the IC50 is the concentration needed to halve the response being measured. High values mean lower potency, low ones higher potency. For orientation: Ki means a measure of affinity in units of concentration, obtained from inhibition or displacement.

Sequence of Acetylcholinesterase (P22303 whole entry): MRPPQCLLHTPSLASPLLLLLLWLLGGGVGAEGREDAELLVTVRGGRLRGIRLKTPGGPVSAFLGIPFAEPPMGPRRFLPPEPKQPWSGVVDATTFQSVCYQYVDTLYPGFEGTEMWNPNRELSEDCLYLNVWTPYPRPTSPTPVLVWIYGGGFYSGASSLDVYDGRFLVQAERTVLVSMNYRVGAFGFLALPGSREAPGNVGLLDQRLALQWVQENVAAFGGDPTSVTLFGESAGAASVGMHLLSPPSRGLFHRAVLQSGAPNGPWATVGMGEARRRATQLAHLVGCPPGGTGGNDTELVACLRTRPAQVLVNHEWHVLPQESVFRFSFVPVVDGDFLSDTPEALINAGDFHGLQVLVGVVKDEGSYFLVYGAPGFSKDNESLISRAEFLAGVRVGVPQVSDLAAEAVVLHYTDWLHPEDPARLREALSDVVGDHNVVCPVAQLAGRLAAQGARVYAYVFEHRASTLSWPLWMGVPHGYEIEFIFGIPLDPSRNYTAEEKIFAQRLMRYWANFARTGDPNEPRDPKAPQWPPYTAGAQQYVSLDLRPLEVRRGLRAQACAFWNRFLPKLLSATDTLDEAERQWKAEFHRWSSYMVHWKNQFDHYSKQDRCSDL

`COc1ccc(OC)c(Br)c1` [2-bromo-1,4-dimethoxybenzene (14)] yielded a half-inhibitory concentration (IC50) of 7.21 nM and a Ki of 4.25 nM.

For the molecule `COc1ccc(C(=O)c2ccc(OC)cc2OC)cc1` [(2,4-dimethoxyphenyl)(4-methoxyphenyl)methanone (18)], it took 5.25 nM to reach half-maximal inhibition (IC50) and the Ki stood at 5.88 nM.

On to `O=C(c1ccc(O)cc1Br)c1cccc(O)c1O` [(2-Bromo-4-hydroxyphenyl)(2,3-dihydroxyphenyl)methanone (21)], for which the concentration for half-maximal inhibition (IC50) was found to be 4.84 nM and the affinity corresponds to a Ki of 3.75 nM.

`COc1ccc(C(=O)c2cccc(OC)c2OC)c(Br)c1` [(2-Bromo-4-methoxyphenyl)(2,3-dimethoxyphenyl)methanone (11)] displayed an IC50 of 4.2 nM and a Ki of 4.34 nM.

Take `O=C(c1ccc(O)c(O)c1)c1ccc(O)cc1Br` [(2-bromo-4-hydroxyphenyl)(3,4-dihydroxyphenyl)methanone (20)]: the midpoint of inhibition, the IC50, lay at 4.71 nM and the Ki stood at 4.06 nM.

For `COc1ccc(C(=O)c2ccc(OC)c(OC)c2)c(Br)c1` [(2-bromo-4-methoxyphenyl)(3,4-dimethoxyphenyl)methanone (10)], the IC50 came out at 4.41 nM and the Ki is 3.53 nM.

As to `O=C(c1ccc(O)cc1)c1cc(O)c(Br)cc1O` [(4-Bromo-2,5-dihydroxyphenyl)(4-hydroxyphenyl)methanone (22)], the midpoint of inhibition, the IC50, lay at 4.58 nM and the Ki turned out to be 2.78 nM.

`O=C(c1ccccc1)c1cc(O)c(Br)cc1O` [(4-Bromo-2,5-dihydroxyphenyl)(phenyl)methanone (23)] yielded an IC50 of 4.88 nM and a Ki of 3.24 nM.

`COc1ccc(C(=O)c2cc(OC)c(Br)cc2OC)cc1` [(4-Bromo-2,5-dimethoxyphenyl)(4-methoxyphenyl)methanone (15)] registered an IC50 of 4.22 nM and a Ki of 3.77 nM.

Turning to `COc1cc(C(=O)c2ccccc2)c(OC)cc1Br` [(4-Bromo-2,5-dimethoxyphenyl)(phenyl)methanone (16)], the IC50 worked out at 4.68 nM and the affinity corresponds to a Ki of 5.28 nM.

The molecule `O=C(c1ccc(O)cc1)c1cc(Br)c(O)cc1O` [(5-Bromo-2,4-dihydroxyphenyl)(4-hydroxyphenyl)methanone (24)] had an IC50 of 4.81 nM and a Ki of 5.72 nM.

In the case of `COc1ccc(C(=O)c2cc(Br)c(OC)cc2OC)cc1` [(5-bromo-2,4-dimethoxyphenyl)(4-methoxyphenyl)methanone (19)], the IC50 turned out to be 4.05 nM and the affinity, expressed as Ki, was 3.65 nM.
